In the NIST ThermoML archive (doi:10.1016/j.fluid.2005.05.029):

Assay: excess molar enthalpy (molar enthalpy of mixing); xn = mol fraction of the nth substance listed
Conditions: Liquid, Flow calorimetry

CCOC(=O)OCC [diethyl carbonate] + O=C=O
excess molar enthalpy [kcal/mol]
Conditions | 298.15 K | 303.15 K | 308.15 K
5000 kPa, x2 = 0.1103 | – | -0.299 | -0.335
5000 kPa, x2 = 0.2074 | -0.57 | -0.577 | -0.627
5000 kPa, x2 = 0.2936 | -0.816 | -0.815 | -0.833
5000 kPa, x2 = 0.3706 | -1.03 | -1.06 | -1.06
5000 kPa, x2 = 0.4398 | -1.22 | -1.24 | -1.24
5000 kPa, x2 = 0.5023 | -1.4 | -1.4 | -1.41
5000 kPa, x2 = 0.5591 | -1.53 | -1.55 | –
5000 kPa, x2 = 0.6109 | -1.65 | -1.67 | -1.68
5000 kPa, x2 = 0.6583 | -1.78 | -1.79 | -1.8
5000 kPa, x2 = 0.7019 | -1.89 | -1.89 | -1.9
5000 kPa, x2 = 0.7184 | – | – | -1.94
5000 kPa, x2 = 0.7264 | – | – | -1.95
5000 kPa, x2 = 0.7343 | – | – | -1.85
5000 kPa, x2 = 0.7421 | -1.97 | -1.98 | -1.81
5000 kPa, x2 = 0.7794 | -2.04 | -2.03 | -1.54
5000 kPa, x2 = 0.7935 | – | -2.05 | –
5000 kPa, x2 = 0.8004 | – | -1.98 | –
5000 kPa, x2 = 0.8139 | -2.1 | -1.86 | –
5000 kPa, x2 = 0.846 | -2.14 | -1.51 | -1.07
5000 kPa, x2 = 0.8522 | -2.07 | – | –
5000 kPa, x2 = 0.876 | -1.76 | -1.21 | –
5000 kPa, x2 = 0.904 | -1.36 | -0.922 | -0.65
5000 kPa, x2 = 0.9303 | -0.998 | -0.722 | –
5000 kPa, x2 = 0.9549 | -0.638 | -0.439 | -0.297
5000 kPa, x2 = 0.9781 | -0.308 | -0.208 | –
5000 kPa, x2 = 0.9957 | – | – | -0.00454
5500 kPa, x2 = 0.111 | -0.3 | -0.304 | -0.305
5500 kPa, x2 = 0.2086 | -0.571 | -0.574 | -0.579
5500 kPa, x2 = 0.2951 | -0.804 | -0.802 | –
5500 kPa, x2 = 0.3723 | -0.995 | -1 | -1.02
5500 kPa, x2 = 0.4416 | -1.16 | -1.17 | –
5500 kPa, x2 = 0.5041 | -1.32 | -1.32 | -1.37
5500 kPa, x2 = 0.5609 | -1.44 | -1.46 | –
5500 kPa, x2 = 0.6126 | – | -1.6 | -1.64
5500 kPa, x2 = 0.66 | -1.68 | -1.71 | -1.75
5500 kPa, x2 = 0.7035 | -1.75 | -1.79 | -1.84
5500 kPa, x2 = 0.7199 | – | – | -1.87
5500 kPa, x2 = 0.7436 | -1.84 | -1.86 | -1.92
5500 kPa, x2 = 0.7587 | – | – | -1.95
5500 kPa, x2 = 0.7661 | – | – | -1.95
5500 kPa, x2 = 0.7734 | – | – | -1.97
5500 kPa, x2 = 0.7806 | -1.91 | -1.94 | -1.95
5500 kPa, x2 = 0.7947 | – | – | -1.82
5500 kPa, x2 = 0.815 | -1.96 | -2.01 | -1.64
5500 kPa, x2 = 0.8281 | – | -2.03 | –
5500 kPa, x2 = 0.8345 | – | -2.03 | –
5500 kPa, x2 = 0.8408 | – | -2.03 | –
5500 kPa, x2 = 0.847 | -2.01 | -1.93 | -1.36
5500 kPa, x2 = 0.8768 | -2.04 | -1.52 | –
5500 kPa, x2 = 0.9047 | -2.07 | -1.21 | -0.841
5500 kPa, x2 = 0.91 | -2.07 | – | –
5500 kPa, x2 = 0.9153 | -2.04 | – | –
5500 kPa, x2 = 0.9205 | -1.95 | – | –
5500 kPa, x2 = 0.9308 | -1.69 | -0.875 | –
5500 kPa, x2 = 0.9553 | -1.08 | -0.564 | -0.396
5500 kPa, x2 = 0.9783 | -0.498 | -0.265 | –
6000 kPa, x2 = 0.2097 | – | – | -0.562
6000 kPa, x2 = 0.2965 | – | – | -0.778
6000 kPa, x2 = 0.3739 | – | – | -0.994
6000 kPa, x2 = 0.4433 | – | – | -1.17
6000 kPa, x2 = 0.5058 | – | – | -1.32
6000 kPa, x2 = 0.5626 | – | – | -1.45
6000 kPa, x2 = 0.6142 | – | – | -1.57
6000 kPa, x2 = 0.6615 | – | – | -1.66
6000 kPa, x2 = 0.7049 | – | – | -1.76
6000 kPa, x2 = 0.7448 | – | – | -1.83
6000 kPa, x2 = 0.7818 | – | – | -1.9
6000 kPa, x2 = 0.7958 | – | – | -1.92
6000 kPa, x2 = 0.816 | – | – | -1.94
6000 kPa, x2 = 0.829 | – | – | -1.95
6000 kPa, x2 = 0.8354 | – | – | -1.91
6000 kPa, x2 = 0.8479 | – | – | -1.76
6000 kPa, x2 = 0.9052 | – | – | -1.09
6000 kPa, x2 = 0.9555 | – | – | -0.501
6500 kPa, x2 = 0.1123 | – | – | -0.281
6500 kPa, x2 = 0.2108 | – | – | -0.536
6500 kPa, x2 = 0.2978 | – | – | -0.751
6500 kPa, x2 = 0.3753 | – | – | -0.972
6500 kPa, x2 = 0.4448 | – | – | -1.1
6500 kPa, x2 = 0.5074 | – | – | -1.25
6500 kPa, x2 = 0.5641 | – | – | -1.37
6500 kPa, x2 = 0.6157 | – | – | -1.47
6500 kPa, x2 = 0.6629 | – | – | -1.58
6500 kPa, x2 = 0.7062 | – | – | -1.67
6500 kPa, x2 = 0.746 | – | – | -1.73
6500 kPa, x2 = 0.7828 | – | – | -1.76
6500 kPa, x2 = 0.817 | – | – | -1.8
6500 kPa, x2 = 0.8487 | – | – | -1.83
6500 kPa, x2 = 0.8782 | – | – | -1.82
6500 kPa, x2 = 0.895 | – | – | -1.7
6500 kPa, x2 = 0.9058 | – | – | -1.56
6500 kPa, x2 = 0.9215 | – | – | -1.27
6500 kPa, x2 = 0.9316 | – | – | -1.13
6500 kPa, x2 = 0.9415 | – | – | -0.986
6500 kPa, x2 = 0.9558 | – | – | -0.69
6500 kPa, x2 = 0.9786 | – | – | -0.329
6500 kPa, x2 = 0.9916 | – | – | -0.111
